Laboratory results: patent US8252723B2, “Substituted 1-(3-pyridinyl)pyrazol-4-ylacetic acids, processes for their preparation and their use as herbicides and plant growth regulators” (Bayer CropScience AG, priority 2006, dated 2012)

These compounds were tested on summer wheat of the cultivar 'Triso' (assay: Plant growth regulation test: culm stabilization of crop plants). Conditions: application rate of 30 to 300 g of active substance per hectare, treated at stage BBCH 31, culm length measured after ears had formed.
Format: in vivo
Description: With stirring, the compound of the formula (I) in question was, in the form of a water-dispersible powder, together with a surfactant (customary adjuvant at an application rate of 1 l/ha), mixed with water such that a homogenous spray liquor was formed, and applied at an application rate of 300 l of water/ha (converted).
Seeds of summer wheat of the cultivar ‘Triso’ were sown at a depth of 1 cm in plant pots and cultivated outdoors until treatment.
The plants were treated on a laboratory track sprayer with spray liquors of the test substances at macrostage 3 after having reached about 10% of the maximum longitudinal growth typical for the cultivar (stage BBCH 31) and, after the treatment, returned outdoors.
After the ears had formed, the length of the culms were measured. The culm stabilization was evaluated as a percentage of the untreated control.
In the case of COC(=O)Cc1c(C)nn(-c2cccnc2)c1-c1cccs1 [Example 2-57], the “longitudinal growth (culm length) of summer wheat” value (shortened to “longitudinal growth (culm length)”) is reported as “effectively shortened”. With COC(=O)Cc1c(C)nn(-c2cccnc2)c1-c1sccc1C [Example 2-58] the “longitudinal growth (culm length)” value was “effectively shortened”. COC(=O)Cc1c(C)nn(-c2cccnc2)c1-c1cc(C)cs1 [Example 2-59] was tested, and the “longitudinal growth (culm length)” value was “effectively shortened”. COC(=O)Cc1c(C)nn(-c2cccnc2)c1-c1ccc(Cl)s1 [Example 2-60] was tested, and the “longitudinal growth (culm length)” value was “effectively shortened”. With COC(=O)Cc1c(C)nn(-c2cccnc2)c1-c1ccc(C)s1 [Example 2-61] the “longitudinal growth (culm length)” value was “effectively shortened”. For COC(=O)Cc1c(C)nn(-c2cccnc2)c1-c1ccc(OC)nc1 [Example 2-62], the “longitudinal growth (culm length)” value was “effectively shortened”. In the case of COC(=O)Cc1c(C)nn(-c2cccnc2)c1-c1ccsc1 [Example 2-63], the “longitudinal growth (culm length)” value is reported as “effectively shortened”. COC(=O)Cc1c(C)nn(-c2cnccc2[S+](C)[O-])c1-c1ccc(Cl)cc1 (stereo not drawn) [Example 2-64] was tested, and the “longitudinal growth (culm length)” value was “effectively shortened”. With COC(=O)Cc1c(C)nn(-c2cnccc2C)c1-c1ccc2c(c1)OCO2 [Example 2-66] the “longitudinal growth (culm length)” value was “effectively shortened”. For COC(=O)Cc1c(C)nn(-c2cnccc2C)c1-c1cc(Cl)cc(Cl)c1 [Example 2-68], the “longitudinal growth (culm length)” value was “effectively shortened”. In the case of COC(=O)Cc1c(C)nn(-c2cccnc2)c1-c1ccc(O)nc1 [Example 2-70], the “longitudinal growth (culm length)” value is reported as “effectively shortened”. With COC(=O)Cc1c(C)nn(-c2cnccc2[S+](C)[O-])c1-c1ccccc1 (stereo not drawn) [Example 2-71] the “longitudinal growth (culm length)” value was “effectively shortened”. With COC(=O)Cc1cnn(-c2cccnc2)c1-c1ccccc1 [Example 2-72] the “longitudinal growth (culm length)” value was “effectively shortened”. For COC(=O)Cc1cnn(-c2cnccc2C)c1-c1ccccc1 [Example 2-73], the “longitudinal growth (culm length)” value was “effectively shortened”. With CCc1nn(-c2cccnc2)c(-c2ccccc2)c1CC(=O)OC [Example 2-74] the “longitudinal growth (culm length)” value was “effectively shortened”. COC(=O)Cc1c(C(F)F)nn(-c2cccnc2)c1-c1ccccc1 [Example 2-79] was tested, and the “longitudinal growth (culm length)” value was “effectively shortened”. With CCCc1nn(-c2cccnc2)c(-c2ccc(Cl)cc2)c1CC(=O)OC [Example 2-89] the “longitudinal growth (culm length)” value was “effectively shortened”. For COC(=O)Cc1c(C)nn(-c2cccnc2)c1-c1ccccn1 [Example 2-109], the “longitudinal growth (culm length)” value was “effectively shortened”. In the case of COC(=O)Cc1c(C)nn(-c2cccnc2)c1-c1ccc(Cl)cn1 [Example 2-110], the “longitudinal growth (culm length)” value is reported as “effectively shortened”. With COC(=O)Cc1c(C)nn(-c2cccnc2)c1-c1ccc(C)cn1 [Example 2-113] the “longitudinal growth (culm length)” value was “effectively shortened”. COC(=O)Cc1c(C)nn(-c2cccnc2)c1-c1ccc(Cl)cc1Cl [Example 2-114] was tested, and the “longitudinal growth (culm length)” value was “effectively shortened”. In the case of COC(=O)Cc1c(C)nn(-c2cnccc2C)c1-c1ccc(C)c(C)c1 [Example 2-116], the “longitudinal growth (culm length)” value is reported as “effectively shortened”. For COC(=O)Cc1c(C)nn(-c2cccnc2)c1-c1cccc(C)c1 [Example 2-119], the “longitudinal growth (culm length)” value was “effectively shortened”. In the case of COC(=O)Cc1c(C)nn(-c2cccnc2)c1-c1ccc(F)cc1 [Example 2-120], the “longitudinal growth (culm length)” value is reported as “effectively shortened”. COC(=O)Cc1c(C)nn(-c2cccnc2)c1-c1ccc(C(C)=O)cc1 [Example 2-121] was tested, and the “longitudinal growth (culm length)” value was “effectively shortened”. In the case of COC(=O)Cc1c(C)nn(-c2cccnc2)c1-c1ccc(C(C)(C)C)cc1 [Example 2-122], the “longitudinal growth (culm length)” value is reported as “effectively shortened”. In the case of COC(=O)Cc1c(C)nn(-c2cccnc2)c1-c1ccc(Cl)c(C)c1 [Example 2-123], the “longitudinal growth (culm length)” value is reported as “effectively shortened”. In the case of CCCc1nn(-c2cnccc2C)c(-c2ccc(Cl)cc2)c1CC(=O)OC [Example 2-124], the “longitudinal growth (culm length)” value is reported as “effectively shortened”. With COC(=O)Cc1c(C)nn(-c2cccnc2)c1-c1cccnc1 [Example 2-125] the “longitudinal growth (culm length)” value was “effectively shortened”. With COC(=O)Cc1c(C)nn(-c2cccnc2)c1-c1ccncc1 [Example 2-126] the “longitudinal growth (culm length)” value was “effectively shortened”. COC(=O)Cc1c(C(=O)OC)nn(-c2cccnc2)c1-c1ccccc1 [Example 2-127] was tested, and the “longitudinal growth (culm length)” value was “effectively shortened”. With COC(=O)Cc1c(C)nn(-c2cccnc2)c1-c1ccc(C)nc1 [Example 2-128] the “longitudinal growth (culm length)” value was “effectively shortened”. With COC(=O)Cc1c(C)nn(-c2cnccc2C)c1-c1cccc(Cl)c1Cl [Example 2-131] the “longitudinal growth (culm length)” value was “effectively shortened”. With COC(=O)Cc1cnn(-c2cnccc2C)c1-c1ccc(Cl)cc1 [Example 2-133] the “longitudinal growth (culm length)” value was “effectively shortened”. COC(=O)Cc1c(C)nn(-c2cccnc2)c1-c1ccc(Cl)nc1 [Example 2-134] was tested, and the “longitudinal growth (culm length)” value was “effectively shortened”. COC(=O)Cc1c(C)nn(-c2cccnc2C)c1-c1ccccc1 [Example 2-135] was tested, and the “longitudinal growth (culm length)” value was “effectively shortened”. With COC(=O)Cc1c(C)nn(-c2cccnc2)c1-c1cc(C)ccn1 [Example 2-136] the “longitudinal growth (culm length)” value was “effectively shortened”. COC(=O)Cc1c(C)nn(-c2cccnc2)c1-c1ccc(C(F)(F)F)cn1 [Example 2-144] was tested, and the “longitudinal growth (culm length)” value was “effectively shortened”. For COC(=O)Cc1c(C)nn(-c2cccnc2)c1-c1cccc(OC)n1 [Example 2-145], the “longitudinal growth (culm length)” value was “effectively shortened”. COC(=O)Cc1c(C2CC2)nn(-c2cccnc2)c1-c1ccc(Cl)cc1 [Example 2-146] was tested, and the “longitudinal growth (culm length)” value was “effectively shortened”. COC(=O)Cc1c(C#N)nn(-c2cccnc2)c1-c1ccc(Cl)cc1 [Example 2-147] was tested, and the “longitudinal growth (culm length)” value was “effectively shortened”. With COC(=O)Cc1c(C=O)nn(-c2cccnc2)c1-c1ccc(Cl)cc1 [Example 2-165] the “longitudinal growth (culm length)” value was “effectively shortened”. With COC(=O)Cc1c(CO)nn(-c2cccnc2)c1-c1ccc(Cl)cc1 [Example 2-184] the “longitudinal growth (culm length)” value was “effectively shortened”. For CCOC(=O)Cc1c(C)nn(-c2cnccc2C)c1-c1ccc(Cl)cc1 [Example 3-1], the “longitudinal growth (culm length)” value was “effectively shortened”. In the case of CCCOC(=O)Cc1c(C)nn(-c2cccnc2)c1-c1ccccn1 [Example 3-34], the “longitudinal growth (culm length)” value is reported as “effectively shortened”. With Cc1nn(-c2cccnc2)c(-c2ccccc2)c1CC(=O)OC(C)C [Example 3-36] the “longitudinal growth (culm length)” value was “effectively shortened”. Cc1nn(-c2cccnc2)c(-c2ccccn2)c1CC(=O)OC(C)C [Example 3-48] was tested, and the “longitudinal growth (culm length)” value was “effectively shortened”. For Cc1nn(-c2cccnc2)c(-c2ccccc2)c1CC(=O)OCc1ccccc1 [Example 3-50], the “longitudinal growth (culm length)” value was “effectively shortened”. In the case of C#CCOC(=O)Cc1c(C)nn(-c2cccnc2)c1-c1ccccc1 [Example 3-54], the “longitudinal growth (culm length)” value is reported as “effectively shortened”. With C#CCOC(=O)Cc1c(C)nn(-c2cccnc2)c1-c1ccc(Cl)cc1 [Example 3-55] the “longitudinal growth (culm length)” value was “effectively shortened”. In the case of C#CCOC(=O)Cc1c(C)nn(-c2cccnc2)c1-c1ccc(OC)nc1 [Example 3-63], the “longitudinal growth (culm length)” value is reported as “effectively shortened”. For C#CCOC(=O)Cc1cnn(-c2cccnc2)c1-c1ccccc1 [Example 3-64], the “longitudinal growth (culm length)” value was “effectively shortened”. With C#CCOC(=O)Cc1c(C)nn(-c2cccnc2)c1-c1ccc(F)cc1 [Example 3-68] the “longitudinal growth (culm length)” value was “effectively shortened”. For C#CCOC(=O)Cc1c(C)nn(-c2cccnc2)c1-c1ccccn1 [Example 3-73], the “longitudinal growth (culm length)” value was “effectively shortened”. For C#CCOC(=O)Cc1c(C)nn(-c2cccnc2)c1-c1ccncc1 [Example 3-74], the “longitudinal growth (culm length)” value was “effectively shortened”. With C#CCOC(=O)Cc1c(C)nn(-c2cnccc2C)c1-c1ccc(Cl)cc1 [Example 3-75] the “longitudinal growth (culm length)” value was “effectively shortened”. Cc1nn(-c2cccnc2)c(-c2ccccc2)c1CC(=O)OCC1CC1 [Example 3-77] was tested, and the “longitudinal growth (culm length)” value was “effectively shortened”. In the case of Cc1nn(-c2cccnc2)c(-c2ccc(Cl)cc2)c1CC(=O)OCC1CC1 [Example 3-78], the “longitudinal growth (culm length)” value is reported as “effectively shortened”. Cc1csc(-c2c(CC(=O)OCC3CC3)c(C)nn2-c2cccnc2)c1 [Example 3-85] was tested, and the “longitudinal growth (culm length)” value was “effectively shortened”. With COc1ccc(-c2c(CC(=O)OCC3CC3)c(C)nn2-c2cccnc2)cn1 [Example 3-86] the “longitudinal growth (culm length)” value was “effectively shortened”.
